{
  "source": "patent US20110214196A1",
  "about": "“DEVELOPMENT OF HERBICIDE-RESISTANT GRASS SPECIES” (University of Georgia Research Foundation, priority 2008, published 2011)",
  "key": {"[1]": {"system": "Mauna Kea line regenerated from tissue culture (TC)", "assay": "Whole plant greenhouse dose-response, Segment herbicide (Example 8)", "format": "in vivo, seashore paspalum (Paspalum vaginatum)", "procedure": "(§1) Sethoxydim-resistant plants regenerated from a sethoxydim-resistant cell line, Line A, were tested for resistance at the whole plant level in a dose-response experiment conducted in a greenhouse. In this experiment, Line A was compared to two herbicide-susceptible controls; the original parent line, Mauna Kea (PT); and a Mauna Kea line regenerated from tissue culture (TTC). Plants were transplanted to Cone-tainers™ measuring 4×14 cm and tapering to 1 cm (Stuewe and Sons Inc., Corvallis, Oreg.) containing a 1:1 mix of Fafard® 3B mix and sand and placed on benches under sodium lights in a greenhouse with a 16 hour photoperiod maintained at 27/32° C. day/night for two weeks prior to treatment applications. Each of the three genotypes, Line A, PT and TC were treated with 0, 50, 100, 200, 400, 800, 1600, and 3200 g ai ha^−1 rates of sethoxydim using Segment™ herbicide (BASF Corp., Florham Park, N.J.). All herbicide rates were applied at a spray volume of 1871 ha^−1 in an experimental spray chamber, and after drying, returned to the greenhouse bench and maintained under the conditions described above. Visual estimates of crop injury were recorded at 7, 14, 21, and 28 days after treatment (DAT) using a scale of 0 to 100, where 0 equals no injury and 100 equals complete death. At 42 days after treatment, the above ground portion of all plants was harvested, dried for 48 hours at a temperature of 50° C., and weighed to determine plant dry weight. Treatments were arranged in a randomized complete block design. Only two replications of TCC were possible due to limited plant materials; otherwise four replications were used for the other two genotypes (PT and Line A). Data were first analyzed using a two-way analysis of variance and subsequently analyzed within herbicide rate. Differences among genotype means at each herbicide rate were determined using Fisher's Least Significant Difference (LSD)."}, "[2]": {"system": "original parent line, Mauna Kea (PT)", "assay": "Whole plant greenhouse dose-response, Segment herbicide (Example 8)", "format": "in vivo, seashore paspalum (Paspalum vaginatum)", "procedure": "as §1"}, "[3]": {"details": "at rates equal to or greater than 800 g ai ha^−1"}, "[4]": {"details": "at rates of 200 g ai ha^−1, scale of 0 to 100"}},
  "data": [
    {"smiles": "CCC/C(=N\\OCC)C1=C(O)CC(CC(C)SCC)CC1=O", "note": "(stereo not drawn) [sethoxydim, 2-[1-(ethoxyimino)-butyl]-5-[2-(ethylthio)propyl]-3-hydroxy-2-cylohexen-1-one]", "values": [
      {"measurement": "Plant Injury", "setting": "[1]; 400 g a.i. ha^−1, 28 DAT", "value": 82.5, "unit": "b %"},
      {"measurement": "Dry Weight", "setting": "[1]; 400 g a.i. ha^−1, 42 DAT", "value": 0.1, "unit": "b grams"},
      {"measurement": "Plant Injury", "setting": "[1]; 800 g a.i. ha^−1, 7 DAT", "value": 60.0, "unit": "c %"},
      {"measurement": "Plant Injury", "setting": "[1]; 800 g a.i. ha^−1, 14 DAT", "value": 87.5, "unit": "b %"},
      {"measurement": "Plant Injury", "setting": "[1]; 800 g a.i. ha^−1, 21 DAT", "value": 95.0, "unit": "b %"},
      {"measurement": "Plant Injury", "setting": "[1]; 800 g a.i. ha^−1, 28 DAT", "value": 100.0, "unit": "c %"},
      {"measurement": "Dry Weight", "setting": "[1]; 800 g a.i. ha^−1, 42 DAT", "value": 0.1, "unit": "b grams"},
      {"measurement": "Plant Injury", "setting": "[1]; 1600 g a.i. ha^−1, 7 DAT", "value": 43.3, "unit": "b %"},
      {"measurement": "Plant Injury", "setting": "[1]; 1600 g a.i. ha^−1, 14 DAT", "value": 100.0, "unit": "c %"},
      {"measurement": "Plant Injury", "setting": "[1]; 1600 g a.i. ha^−1, 21 DAT", "value": 100.0, "unit": "c %"},
      {"measurement": "Plant Injury", "setting": "[1]; 1600 g a.i. ha^−1, 28 DAT", "value": 100.0, "unit": "b %"},
      {"measurement": "Dry Weight", "setting": "[1]; 1600 g a.i. ha^−1, 42 DAT", "value": 0.1, "unit": "b grams"},
      {"measurement": "Plant Injury", "setting": "[1]; 3200 g a.i. ha^−1, 7 DAT", "value": 46.7, "unit": "b %"},
      {"measurement": "Plant Injury", "setting": "[1]; 3200 g a.i. ha^−1, 14 DAT", "value": 100.0, "unit": "b %"},
      {"measurement": "Plant Injury", "setting": "[1]; 3200 g a.i. ha^−1, 21 DAT", "value": 100.0, "unit": "b %"},
      {"measurement": "Plant Injury", "setting": "[1]; 3200 g a.i. ha^−1, 28 DAT", "value": 100.0, "unit": "b %"},
      {"measurement": "Dry Weight", "setting": "[1]; 3200 g a.i. ha^−1, 42 DAT", "value": 0.1, "unit": "b grams"},
      {"measurement": "injury score", "setting": "[1]; [3]", "value": "≥ 80", "unit": "%"},
      {"measurement": "injury score", "setting": "[1]; [4]", "value": "≥ 30"},
      {"measurement": "LD50", "setting": "[2]", "value": 189, "unit": "g ai ha^1"},
      {"measurement": "Plant Injury", "setting": "[2]; 50 g a.i. ha^−1, 7 DAT", "value": 5.2, "unit": "a %"},
      {"measurement": "Plant Injury", "setting": "[2]; 50 g a.i. ha^−1, 14 DAT", "value": 6.2, "unit": "b %"},
      {"measurement": "Plant Injury", "setting": "[2]; 50 g a.i. ha^−1, 21 DAT", "value": 5.0, "unit": "a %"},
      {"measurement": "Plant Injury", "setting": "[2]; 50 g a.i. ha^−1, 28 DAT", "value": 1.2, "unit": "a %"},
      {"measurement": "Dry Weight", "setting": "[2]; 50 g a.i. ha^−1, 42 DAT", "value": 1.6, "unit": "a grams"},
      {"measurement": "Plant Injury", "setting": "[2]; 100 g a.i. ha^−1, 7 DAT", "value": 7.9, "unit": "b %"},
      {"measurement": "Plant Injury", "setting": "[2]; 100 g a.i. ha^−1, 14 DAT", "value": 22.5, "unit": "b %"},
      {"measurement": "Plant Injury", "setting": "[2]; 100 g a.i. ha^−1, 21 DAT", "value": 13.8, "unit": "a %"},
      {"measurement": "Plant Injury", "setting": "[2]; 100 g a.i. ha^−1, 28 DAT", "value": 6.2, "unit": "a %"},
      {"measurement": "Dry Weight", "setting": "[2]; 100 g a.i. ha^−1, 42 DAT", "value": 1.3, "unit": "b grams"},
      {"measurement": "Plant Injury", "setting": "[2]; 200 g a.i. ha^−1, 7 DAT", "value": 20.8, "unit": "b %"},
      {"measurement": "Plant Injury", "setting": "[2]; 200 g a.i. ha^−1, 14 DAT", "value": 55.0, "unit": "b %"},
      {"measurement": "Plant Injury", "setting": "[2]; 200 g a.i. ha^−1, 21 DAT", "value": 52.5, "unit": "b %"},
      {"measurement": "Plant Injury", "setting": "[2]; 200 g a.i. ha^−1, 28 DAT", "value": 43.8, "unit": "b %"},
      {"measurement": "Dry Weight", "setting": "[2]; 200 g a.i. ha^−1, 42 DAT", "value": 0.8, "unit": "b grams"},
      {"measurement": "Plant Injury", "setting": "[2]; 400 g a.i. ha^−1, 7 DAT", "value": 30.8, "unit": "b %"},
      {"measurement": "Plant Injury", "setting": "[2]; 400 g a.i. ha^−1, 14 DAT", "value": 67.5, "unit": "b %"},
      {"measurement": "Plant Injury", "setting": "[2]; 400 g a.i. ha^−1, 21 DAT", "value": 67.5, "unit": "b %"},
      {"measurement": "Plant Injury", "setting": "[2]; 400 g a.i. ha^−1, 28 DAT", "value": 72.5, "unit": "b %"},
      {"measurement": "Dry Weight", "setting": "[2]; 400 g a.i. ha^−1, 42 DAT", "value": 0.2, "unit": "b grams"},
      {"measurement": "Plant Injury", "setting": "[2]; 800 g a.i. ha^−1, 7 DAT", "value": 35.0, "unit": "b %"},
      {"measurement": "Plant Injury", "setting": "[2]; 800 g a.i. ha^−1, 14 DAT", "value": 85.0, "unit": "b %"},
      {"measurement": "Plant Injury", "setting": "[2]; 800 g a.i. ha^−1, 21 DAT", "value": 85.0, "unit": "b %"},
      {"measurement": "Plant Injury", "setting": "[2]; 800 g a.i. ha^−1, 28 DAT", "value": 88.8, "unit": "b %"},
      {"measurement": "Dry Weight", "setting": "[2]; 800 g a.i. ha^−1, 42 DAT", "value": 0.3, "unit": "b grams"},
      {"measurement": "Plant Injury", "setting": "[2]; 1600 g a.i. ha^−1, 7 DAT", "value": 40.8, "unit": "b %"},
      {"measurement": "Plant Injury", "setting": "[2]; 1600 g a.i. ha^−1, 14 DAT", "value": 90.0, "unit": "b %"},
      {"measurement": "Plant Injury", "setting": "[2]; 1600 g a.i. ha^−1, 21 DAT", "value": 92.5, "unit": "b %"},
      {"measurement": "Plant Injury", "setting": "[2]; 1600 g a.i. ha^−1, 28 DAT", "value": 92.5, "unit": "b %"},
      {"measurement": "Dry Weight", "setting": "[2]; 1600 g a.i. ha^−1, 42 DAT", "value": 0.2, "unit": "b grams"},
      {"measurement": "Plant Injury", "setting": "[2]; 3200 g a.i. ha^−1, 7 DAT", "value": 37.9, "unit": "b %"},
      {"measurement": "Plant Injury", "setting": "[2]; 3200 g a.i. ha^−1, 14 DAT", "value": 100.0, "unit": "b %"},
      {"measurement": "Plant Injury", "setting": "[2]; 3200 g a.i. ha^−1, 21 DAT", "value": 100.0, "unit": "b %"},
      {"measurement": "Plant Injury", "setting": "[2]; 3200 g a.i. ha^−1, 28 DAT", "value": 100.0, "unit": "b %"},
      {"measurement": "Dry Weight", "setting": "[2]; 3200 g a.i. ha^−1, 42 DAT", "value": 0.1, "unit": "b grams"},
      {"measurement": "injury score", "setting": "[2]; [3]", "value": "≥ 80", "unit": "%"},
      {"measurement": "injury score", "setting": "[2]; [4]", "value": "≥ 30"}
    ]}
  ]
}
